Experiments:
[1] = target: Voltage-dependent N-type calcium channel subunit alpha-1B (Homo sapiens) (UniProt Q00975); test: Inhibition of Calcium Channel N-Type at 10 µM in the Eurofins-Panlabs radioligand binding assay (Eurofins_assay_216000); conditions: Rattus norvegicus; Compound concentration 10.0 uM
[2] = target: Platelet-activating factor receptor (Homo sapiens) (UniProt P25105); test: Inhibition of Platelet Activating Factor (PAF) at 10 µM in the Eurofins-Panlabs radioligand binding assay (Eurofins_assay_265010); conditions: Compound concentration 10.0 uM
[3] = target: Alpha-2C adrenergic receptor (Homo sapiens) (UniProt P18825); test: Adrenergic alpha2C Eurofins-Panlabs radioligand binding assay; set-up: ligand concentration 1 nM, non-specific ligand with concentration 10 µM WB-4101, incubation time 60 min, incubation temperature 25 °C; conditions: Compound concentration 10.0 uM
[4] = Inhibition of Atrial Natriuretic Factor (ANF) at 10 µM in the Eurofins-Panlabs radioligand binding assay (Eurofins_assay_211000); conditions: Cavia porcellus
[5] = target: Melanocortin receptor 3 (Homo sapiens) (UniProt P41968); test: Inhibition of Melanocortin MC3 at 10 µM in the Eurofins-Panlabs radioligand binding assay (Eurofins_assay_251300); set-up: ligand concentration 0.035 nM; conditions: Compound concentration 10.0 uM
[6] = target: 5-hydroxytryptamine receptor 1B (Homo sapiens) (UniProt P28222); test: Inhibition of Serotonin (5-Hydroxytryptamine) 5-HT1B at 10 µM in the Eurofins-Panlabs radioligand binding assay (Eurofins_assay_271200); conditions: Compound concentration 10.0 uM
[7] = target: Vasoactive intestinal polypeptide receptor 1 (Homo sapiens) (UniProt P32241); test: Inhibition of Vasoactive Intestinal Peptide VIP1 at 10 µM in the Eurofins-Panlabs radioligand binding assay (Eurofins_assay_287010); conditions: Compound concentration 10.0 uM
Rattus norvegicus = organism: Rattus norvegicus; test: Protein Serine/Threonine Kinase, PKC, Non-Selective Eurofins-Panlabs enzyme assay; conditions: Compound concentration 10.0 uM
[8] = target: Tyrosine 3-monooxygenase (Homo sapiens) (UniProt P07101); test: Tyrosine Hydroxylase Eurofins-Panlabs enzyme assay; set-up: substrate with concentration; conditions: Rattus norvegicus; Compound concentration 10.0 uM
[9] = target: Polyunsaturated fatty acid lipoxygenase ALOX12 (Homo sapiens) (UniProt P18054); test: Lipoxygenase 12-LO Eurofins-Panlabs enzyme assay; set-up: substrate with concentration; conditions: Compound concentration 10.0 uM
Caspase-6 (Homo sapiens) = Caspase-6 (Homo sapiens) (UniProt P55212); test: Peptidase, CASP6 (Caspase 6) Eurofins-Panlabs enzyme assay; set-up: substrate with concentration; conditions: Compound concentration 10.0 uM
[10] = target: Neutrophil elastase (Homo sapiens) (UniProt P08246); test: Peptidase, ELA2 (Neutrophil Elastase 2) Eurofins-Panlabs enzyme assay; conditions: Compound concentration 10.0 uM
[11] = target: Neprilysin (Homo sapiens) (UniProt P08473); test: Peptidase, Metalloproteinase, Neutral Endopeptidase Eurofins-Panlabs enzyme assay; conditions: Compound concentration 10.0 uM
[12] = target: Epidermal growth factor receptor (Homo sapiens) (UniProt P00533); test: Protein Tyrosine Kinase, EGF Receptor Eurofins-Panlabs enzyme assay; set-up: substrate with concentration 10 µg/mL Poly(Glu:Tyr), incubation time 60 min, incubation temperature 25 °C; conditions: Compound concentration 10.0 uM
[13] = target: Tyrosine-protein phosphatase non-receptor type 1 (Homo sapiens) (UniProt P18031); test: Protein Tyrosine Phosphatase, PTPN1 (PTP1B) Eurofins-Panlabs enzyme assay; set-up: substrate with concentration; conditions: Compound concentration 10.0 uM
[14] = target: Type-2 angiotensin II receptor (Homo sapiens) (UniProt P50052); test: Angiotensin AT2 Eurofins-Panlabs radioligand binding assay; type: protein assay; conditions: Compound concentration 10.0 uM
[15] = target: B1 bradykinin receptor (Homo sapiens) (UniProt P46663); test: Bradykinin B1 Eurofins-Panlabs radioligand binding assay; conditions: Compound concentration 10.0 uM
[16] = target: Cannabinoid receptor 1 (Homo sapiens) (UniProt P21554); test: Cannabinoid CB1 Eurofins-Panlabs radioligand binding assay; conditions: Compound concentration 10.0 uM
Homo sapiens = organism: Homo sapiens; test: Cholecystokinin CCK2 (CCKB) Eurofins-Panlabs radioligand binding assay; set-up: ligand concentration 0.072 nM, non-specific ligand with concentration 1 µM Sincalide, incubation time 3 h, incubation temperature 25 °C; conditions: Compound concentration 10.0 uM
[17] = target: D(1B) dopamine receptor (Homo sapiens) (UniProt P21918); test: Dopamine D5 Eurofins-Panlabs radioligand binding assay; conditions: Compound concentration 10.0 uM
[18] = target: Melatonin receptor (Gallus gallus) (UniProt P49288+P51050+P49285); test: Melatonin MT, Non-Selective Eurofins-Panlabs radioligand binding assay; type: protein assay; conditions: Compound concentration 10.0 uM
[19] = target: Prostaglandin D2 receptor (Homo sapiens) (UniProt Q13258); test: Prostanoid DP Eurofins-Panlabs radioligand binding assay; conditions: Compound concentration 10.0 uM
[20] = target: Prostaglandin F2-alpha receptor (Homo sapiens) (UniProt P43088); test: Prostanoid FP Eurofins-Panlabs radioligand binding assay; set-up: ligand concentration 0.95 nM; conditions: Compound concentration 10.0 uM
[21] = target: Somatostatin receptor type 2 (Homo sapiens) (UniProt P30874); test: Somatostatin sst2 Eurofins-Panlabs radioligand binding assay; set-up: ligand concentration 0.1 nM; conditions: Compound concentration 10.0 uM
[22] = target: Neuromedin-K receptor (Homo sapiens) (UniProt P29371); test: Tachykinin NK3 Eurofins-Panlabs radioligand binding assay; set-up: ligand concentration 0.8 nM; conditions: Compound concentration 10.0 uM
[23] = target: T1, Muscarinic acetylcholine receptor M1 (Homo sapiens) (UniProt P11229); test: Agonism inflection point assay
T1 sequence (whole entry): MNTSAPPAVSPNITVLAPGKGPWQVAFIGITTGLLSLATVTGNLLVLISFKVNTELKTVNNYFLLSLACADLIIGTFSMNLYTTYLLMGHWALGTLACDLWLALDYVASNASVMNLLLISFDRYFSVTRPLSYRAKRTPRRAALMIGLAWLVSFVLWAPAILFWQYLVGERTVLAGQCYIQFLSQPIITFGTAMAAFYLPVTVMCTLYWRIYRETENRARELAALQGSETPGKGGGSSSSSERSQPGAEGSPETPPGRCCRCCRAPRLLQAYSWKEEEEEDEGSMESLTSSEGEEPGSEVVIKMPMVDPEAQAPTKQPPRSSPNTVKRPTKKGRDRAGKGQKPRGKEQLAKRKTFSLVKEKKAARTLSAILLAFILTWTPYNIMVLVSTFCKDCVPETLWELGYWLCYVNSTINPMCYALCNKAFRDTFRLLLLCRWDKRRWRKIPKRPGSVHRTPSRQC

[24] = target: GABA-A receptor; alpha-5/beta-3/gamma-2 (Homo sapiens) (UniProt P18507+P28472+P31644); test: GABA-alpha5beta3gamma2 Eurofins-Panlabs radioligand binding assay; type: protein-complex assay; set-up: ligand concentration 1 nM; conditions: Compound concentration 10.0 uM
[25] = target: D(1B) dopamine receptor (Homo sapiens) (UniProt P21918); conditions: Compound concentration 10.0 uM
[26] = target: Sodium-dependent serotonin transporter (Homo sapiens) (UniProt P31645); conditions: Compound concentration 10.0 uM
[27] = target: Endothelin-1 receptor (Homo sapiens) (UniProt P25101); conditions: Compound concentration 10.0 uM
[28] = target: Histamine H1 receptor (Homo sapiens) (UniProt P35367); conditions: Compound concentration 10.0 uM
[29] = target: Muscarinic acetylcholine receptor M3 (Homo sapiens) (UniProt P20309); conditions: Compound concentration 10.0 uM
[30] = target: Mu-type opioid receptor (Homo sapiens) (UniProt P35372); conditions: Compound concentration 10.0 uM
[31] = target: Sodium-dependent dopamine transporter (Homo sapiens) (UniProt Q01959); conditions: Compound concentration 10.0 uM
[32] = target: Insulin receptor (Homo sapiens) (UniProt P06213); conditions: Rattus norvegicus; Compound concentration 10.0 uM
[33] = target: Cannabinoid receptor 2 (Homo sapiens) (UniProt P34972); conditions: Compound concentration 10.0 uM
[34] = target: TGF-beta receptor type-1 (Homo sapiens) (UniProt P36897); conditions: Compound concentration 1000.0 nM
[35] = target: 5-hydroxytryptamine receptor 6 (Homo sapiens) (UniProt P50406); conditions: Compound concentration 10.0 uM
5-hydroxytryptamine receptor 6 (Homo sapiens), sequence (P50406 whole entry): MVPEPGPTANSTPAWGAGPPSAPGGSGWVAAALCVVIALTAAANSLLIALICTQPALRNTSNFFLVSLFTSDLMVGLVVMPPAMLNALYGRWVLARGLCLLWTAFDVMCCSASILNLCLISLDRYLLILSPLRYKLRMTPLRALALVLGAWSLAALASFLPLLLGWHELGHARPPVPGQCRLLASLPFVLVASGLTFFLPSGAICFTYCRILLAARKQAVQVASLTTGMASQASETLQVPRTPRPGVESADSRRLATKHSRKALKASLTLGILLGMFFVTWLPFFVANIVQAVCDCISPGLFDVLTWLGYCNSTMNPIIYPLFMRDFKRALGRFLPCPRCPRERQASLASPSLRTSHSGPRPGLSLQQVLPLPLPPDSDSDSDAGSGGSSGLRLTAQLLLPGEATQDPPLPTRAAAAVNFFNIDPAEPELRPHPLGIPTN

D(1B) dopamine receptor (Homo sapiens), sequence (P21918 whole entry): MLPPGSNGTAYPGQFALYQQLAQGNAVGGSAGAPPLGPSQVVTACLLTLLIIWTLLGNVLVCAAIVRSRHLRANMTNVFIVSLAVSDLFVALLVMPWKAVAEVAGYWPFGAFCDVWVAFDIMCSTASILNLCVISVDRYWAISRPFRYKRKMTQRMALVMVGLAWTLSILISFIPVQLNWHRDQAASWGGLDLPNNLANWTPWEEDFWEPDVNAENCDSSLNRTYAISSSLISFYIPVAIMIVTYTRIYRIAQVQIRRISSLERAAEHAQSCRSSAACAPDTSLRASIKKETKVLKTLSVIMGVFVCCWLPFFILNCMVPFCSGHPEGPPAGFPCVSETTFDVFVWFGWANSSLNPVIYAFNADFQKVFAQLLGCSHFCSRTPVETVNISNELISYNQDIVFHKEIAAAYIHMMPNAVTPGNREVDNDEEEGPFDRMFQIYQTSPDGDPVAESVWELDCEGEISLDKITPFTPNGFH
Cannabinoid receptor 1 (Homo sapiens), sequence (P21554 whole entry): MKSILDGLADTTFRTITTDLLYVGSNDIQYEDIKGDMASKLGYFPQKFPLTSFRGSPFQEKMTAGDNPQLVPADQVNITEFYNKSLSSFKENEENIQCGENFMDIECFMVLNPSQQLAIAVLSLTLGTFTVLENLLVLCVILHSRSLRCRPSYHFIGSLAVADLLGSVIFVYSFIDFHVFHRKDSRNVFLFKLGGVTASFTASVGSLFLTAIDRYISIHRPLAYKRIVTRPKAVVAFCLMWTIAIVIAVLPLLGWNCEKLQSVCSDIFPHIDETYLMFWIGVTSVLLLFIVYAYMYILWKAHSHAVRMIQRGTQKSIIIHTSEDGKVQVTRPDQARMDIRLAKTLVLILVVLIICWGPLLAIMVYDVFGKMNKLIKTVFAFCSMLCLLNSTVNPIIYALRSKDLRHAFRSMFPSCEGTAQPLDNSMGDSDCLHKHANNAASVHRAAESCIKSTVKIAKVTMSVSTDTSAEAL
Endothelin-1 receptor (Homo sapiens), sequence (P25101 whole entry): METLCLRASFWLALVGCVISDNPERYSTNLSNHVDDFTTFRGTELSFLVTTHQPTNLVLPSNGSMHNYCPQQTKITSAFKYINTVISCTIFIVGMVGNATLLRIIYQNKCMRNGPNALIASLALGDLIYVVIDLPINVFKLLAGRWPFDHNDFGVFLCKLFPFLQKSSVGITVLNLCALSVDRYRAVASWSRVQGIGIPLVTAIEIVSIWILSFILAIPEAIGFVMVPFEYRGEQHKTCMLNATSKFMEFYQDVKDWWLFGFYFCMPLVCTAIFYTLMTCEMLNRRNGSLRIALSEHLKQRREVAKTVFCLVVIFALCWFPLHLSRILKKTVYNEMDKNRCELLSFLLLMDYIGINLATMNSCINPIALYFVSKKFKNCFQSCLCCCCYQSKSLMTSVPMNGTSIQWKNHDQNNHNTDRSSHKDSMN
B1 bradykinin receptor (Homo sapiens), sequence (P46663 whole entry): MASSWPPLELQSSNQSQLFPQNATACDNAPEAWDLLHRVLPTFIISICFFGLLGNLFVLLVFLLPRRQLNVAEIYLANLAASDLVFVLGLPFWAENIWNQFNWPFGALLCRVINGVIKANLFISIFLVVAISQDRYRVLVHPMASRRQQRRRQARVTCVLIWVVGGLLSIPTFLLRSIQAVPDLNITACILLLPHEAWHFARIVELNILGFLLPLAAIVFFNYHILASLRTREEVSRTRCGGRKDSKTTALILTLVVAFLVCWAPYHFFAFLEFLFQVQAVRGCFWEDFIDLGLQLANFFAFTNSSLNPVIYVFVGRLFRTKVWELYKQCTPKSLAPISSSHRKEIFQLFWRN
Vasoactive intestinal polypeptide receptor 1 (Homo sapiens), sequence (P32241 whole entry): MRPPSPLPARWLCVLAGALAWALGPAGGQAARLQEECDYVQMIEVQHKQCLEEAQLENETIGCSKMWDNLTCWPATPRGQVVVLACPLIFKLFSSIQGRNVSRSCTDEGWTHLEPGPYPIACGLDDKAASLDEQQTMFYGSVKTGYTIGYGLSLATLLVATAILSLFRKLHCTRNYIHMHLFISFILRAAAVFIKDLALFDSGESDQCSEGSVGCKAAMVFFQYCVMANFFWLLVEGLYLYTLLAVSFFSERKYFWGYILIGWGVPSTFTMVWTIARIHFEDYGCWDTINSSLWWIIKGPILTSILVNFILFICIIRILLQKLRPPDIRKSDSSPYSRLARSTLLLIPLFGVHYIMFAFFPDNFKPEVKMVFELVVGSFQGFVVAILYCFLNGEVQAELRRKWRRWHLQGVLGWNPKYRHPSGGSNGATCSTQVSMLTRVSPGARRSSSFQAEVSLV
Neprilysin (Homo sapiens), sequence (P08473 whole entry): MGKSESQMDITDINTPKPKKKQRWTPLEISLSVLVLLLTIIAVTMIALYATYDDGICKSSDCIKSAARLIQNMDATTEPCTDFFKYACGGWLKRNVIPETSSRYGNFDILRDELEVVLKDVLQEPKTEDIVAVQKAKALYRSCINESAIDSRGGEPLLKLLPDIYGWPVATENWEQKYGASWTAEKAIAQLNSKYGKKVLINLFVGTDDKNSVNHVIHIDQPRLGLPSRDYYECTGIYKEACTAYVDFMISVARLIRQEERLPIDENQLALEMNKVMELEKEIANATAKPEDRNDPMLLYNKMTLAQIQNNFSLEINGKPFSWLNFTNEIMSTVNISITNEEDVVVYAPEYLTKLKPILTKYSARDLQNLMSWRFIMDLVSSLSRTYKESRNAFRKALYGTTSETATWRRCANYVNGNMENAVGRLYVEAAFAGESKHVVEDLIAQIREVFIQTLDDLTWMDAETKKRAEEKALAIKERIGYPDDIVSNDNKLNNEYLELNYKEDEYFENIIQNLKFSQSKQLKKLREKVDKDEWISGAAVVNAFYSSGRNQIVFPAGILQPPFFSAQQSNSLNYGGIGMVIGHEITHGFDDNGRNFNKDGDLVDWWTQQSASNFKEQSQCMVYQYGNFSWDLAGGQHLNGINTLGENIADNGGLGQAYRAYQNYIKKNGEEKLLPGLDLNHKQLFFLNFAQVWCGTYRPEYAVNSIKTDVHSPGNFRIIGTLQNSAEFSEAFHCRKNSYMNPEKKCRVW
Caspase-6 (Homo sapiens), sequence (P55212 24-179 limits assumed): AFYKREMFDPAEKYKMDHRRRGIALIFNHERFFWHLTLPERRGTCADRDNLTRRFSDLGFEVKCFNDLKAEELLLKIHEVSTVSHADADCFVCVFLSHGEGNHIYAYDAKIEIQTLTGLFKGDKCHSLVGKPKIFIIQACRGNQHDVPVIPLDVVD
Caspase-6 (Homo sapiens), sequence (P55212 194-293 limits assumed): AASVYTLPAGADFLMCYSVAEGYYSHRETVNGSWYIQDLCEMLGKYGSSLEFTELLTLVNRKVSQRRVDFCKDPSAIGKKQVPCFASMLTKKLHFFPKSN
Type-2 angiotensin II receptor (Homo sapiens), sequence (P50052 whole entry): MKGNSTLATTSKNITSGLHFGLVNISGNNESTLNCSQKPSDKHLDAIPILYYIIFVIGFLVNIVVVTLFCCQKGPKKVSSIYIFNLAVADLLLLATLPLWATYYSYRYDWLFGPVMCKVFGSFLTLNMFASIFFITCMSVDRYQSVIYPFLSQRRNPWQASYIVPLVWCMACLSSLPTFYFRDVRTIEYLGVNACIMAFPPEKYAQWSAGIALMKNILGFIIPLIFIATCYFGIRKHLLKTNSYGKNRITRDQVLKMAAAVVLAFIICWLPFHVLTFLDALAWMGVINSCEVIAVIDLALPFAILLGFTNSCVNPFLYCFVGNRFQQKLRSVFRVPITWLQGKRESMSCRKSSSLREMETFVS
Melanocortin receptor 3 (Homo sapiens), sequence (P41968 whole entry): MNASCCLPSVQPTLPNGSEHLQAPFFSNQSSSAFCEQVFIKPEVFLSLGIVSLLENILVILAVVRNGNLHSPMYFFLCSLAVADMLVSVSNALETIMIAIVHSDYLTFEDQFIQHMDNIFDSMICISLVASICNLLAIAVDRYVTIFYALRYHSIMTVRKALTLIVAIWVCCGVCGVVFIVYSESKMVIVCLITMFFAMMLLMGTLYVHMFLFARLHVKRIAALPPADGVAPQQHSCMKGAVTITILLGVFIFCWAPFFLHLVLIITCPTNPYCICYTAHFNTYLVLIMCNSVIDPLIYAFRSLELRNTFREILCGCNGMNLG
Cannabinoid receptor 2 (Homo sapiens), sequence (P34972 whole entry): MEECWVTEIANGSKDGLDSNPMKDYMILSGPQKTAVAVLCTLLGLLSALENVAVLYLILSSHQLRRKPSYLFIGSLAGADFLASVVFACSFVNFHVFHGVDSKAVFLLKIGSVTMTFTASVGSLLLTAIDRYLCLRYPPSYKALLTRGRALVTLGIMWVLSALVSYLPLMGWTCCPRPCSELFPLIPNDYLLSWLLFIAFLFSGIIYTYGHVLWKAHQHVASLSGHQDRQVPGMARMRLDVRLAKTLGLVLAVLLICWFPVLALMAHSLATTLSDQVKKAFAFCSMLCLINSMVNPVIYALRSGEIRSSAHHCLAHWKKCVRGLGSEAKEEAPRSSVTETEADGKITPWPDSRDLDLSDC

Compound: N#CC1(c2ccccn2)CCN(Cc2cc(C(=O)O)c(=O)n3ccccc23)CC1 [MSD-M1PAM]
- inhibition [1]: -3%
- inhibition [2]: -5%
- inhibition [3]: 15%
- inhibition at 10 µM [4]: 1% (not active)
- inhibition [5]: 1%
- inhibition [6]: -2%
- inhibition [7]: 14%
- inhibition (Rattus norvegicus): 9%
- inhibition [8]: -2%
- inhibition [9]: 13%
- inhibition (Caspase-6 (Homo sapiens)): 13%
- inhibition [10]: 9%
- inhibition [11]: 3%
- inhibition [12]: 5%
- inhibition [13]: 34%
- inhibition [14]: -2%
- inhibition [15]: -6%
- inhibition [16]: -3%
- inhibition (Homo sapiens): -3%
- inhibition [17]: 2%
- inhibition [18]: -6%
- inhibition [19]: 29%
- inhibition [20]: 12%
- inhibition [21]: 12%
- inhibition [22]: 7%
- Agonism inflection point [23]: 7.38 µM
- inhibition [24]: 14%
- inhibition [25]: -2.87%
- inhibition [26]: 19%
- inhibition [27]: -1%
- inhibition [28]: 5%
- inhibition [29]: 3%
- inhibition [30]: 0%
- inhibition [31]: 0%
- inhibition [32]: 3%
- inhibition [33]: 0%

Compound: N#CC1(c2ccccn2)CCN(Cc2cc(C(=O)N3CCCC3)c(=O)n3ccccc23)CC1
- residual activity [34]: 72%
- inhibition [35]: 2.79%
